# From patent US20040229268A1, “Method and kit for identifying antibiotic-resistant microorganisms” (priority 2003, published 2004)
# Marks after values point to notes of the source that are not given here.
# Legend:
# [1] = system: mecA gene; Staphylococcus ribosomal nucleic acids; test: HPA after thermal lysis, base hydrolysis and neutralization (Examples 5-7); type: binding, S. aureus
# Description: The cultured S. aureus specimens were lysed by suspending 1 μl loops of bacteria in 150 μl of lysis buffer and then incubating at 105° C. for 15 minutes. Next, 100 μl of 2 N LiOH base solution was added and RNA was hydrolyzed by incubating the mixtures at 60° C. for 15 minutes. Hydrolyzed samples were neutralized by the addition of 100 μl of a neutralizing reagent that included 2 N HCl and 100 mM succinate buffer (pH 5.5 prior to acidification with HCl). Specifically hybridized probe was detected by standard HPA, essentially as described in Example 1.
# Specimens (1 μl loops of bacteria) were treated and tested essentially as described in Example 5 with the following differences: incubation for lysis was for 15 minutes and incubation for hybridization was for 45 minutes for samples shown in Tables 7-8, while incubation for lysis was for 10 minutes and incubation for hybridization was for 20 minutes for samples shown in Table 9. All of the base-treated solutions were neutralized by the addition of 250 μl of 0.8 N HCl containing 100 mM succinate.
# 2′-methoxy analogs of the AE-labeled DNA probes were prepared by standard phosphoramidite synthesis using 2′ methoxy phosphoramidite analogs. Additional linker positions, which are indicated by parentheses in Table 11, for probe 2 were also prepared for testing. Deoxy probes and 2′-methoxy probe analogs were tested essentially as described in Example 5, except as noted below. Probes synthesized using 2′-methoxy nucleotide analogs are particularly identified by the “MeO” designations. Brief summaries of the procedures used to obtain the results are appended to the tables.
# [2] = system: VanA and VanB gene sequences; test: HPA for detecting VanA and VanB gene sequences (Example 12); type: binding, E. faecalis, E. faecium
# Description: Double-stranded plasmids harboring inserts of either VanA or VanB gene sequences were prepared for use as control templates. More specifically, VanA gene sequences were amplified in a PCR protocol using primers having the sequences of VanA(+)464 Kpn and VanA(−)1325Bam. Similarly, VanB gene sequences were amplified using primers having the sequences of VanB(+)084 Kpn and VanB(−)1006Bam. Genomic DNA samples from bacteria known to have VanA or VanB genotypes were used as templates in the amplification reactions. Blunt-ended amplification products containing VanA gene sequences were ligated into a pPCR-[…] SK(+) (Stratagene; La Jolla, Calif.) plasmid cloning vector, and propagated in E. coli host bacteria using procedures that will be familiar to those having an ordinary level of skill in the art. Double-stranded amplification products containing VanB gene sequences were first digested with KpnI and BamHI, and then ligated into a similarly cleaved pBLUESCRIPT-II KS(+) (Stratagene; La Jolla, Calif.) plasmid cloning vector. Isolated double-stranded plasmid DNA served as controls in hybridization assays.
# 2′-deoxy probes having the sequences presented under Example 10 were prepared by standard phosphoramidite synthesis. AE labeling of the probes also was performed using standard procedures, as described herein and as will be familiar to those having an ordinary level of skill in the art. Samples of four different cultured VRE bacteria described under the previous Example were lysed essentially as described above. RNA in the samples was hydrolyzed and DNA denatured by incubation of the lysate with hydroxide at elevated temperature. In parallel procedures, samples of two plasmid clones harboring either the VanA or VanB inserts (as described under the previous Example) were also treated to denature DNA. All samples were neutralized by addition of a buffered HCl reagent. AE-labeled probes were added to each of the samples and then hybridized at 55-60° C. for 45 minutes to permit formation of complementary probe:target duplexes. The pan-bacterial probe (Probe Reagent 1, GEN-PROBE® MTC-NI Kit, catalog no. 4573) described under Example 2 was used as a positive control to confirm the presence of bacterial nucleic acid targets. Trials containing labeled probe in the absence of an added target (i.e., “probe alone”) served as negative controls. The AE label joined to probe molecules that remained single-stranded following the hybridization procedure were destroyed by treatment under mild alkaline conditions, and the extent of specific hybrid formation quantified by luminometry as described in the foregoing Examples.
# [3] = ATCC 51299 (VanB), E. faecalis lysate
# [4] = ATCC 51575 (VanB), E. faecalis lysate
# [5] = ATCC 700221 (VanA), E. faecium lysate
# [6] = ATCC 700802 (VanB), E. faecalis lysate
# [7] = samples containing nucleic acids from VanB-positive VRE bacteria
# [8] = Table 7, lysis 15 minutes, hybridization 45 minutes
# [9] = Table 9, lysis 10 minutes, hybridization 20 minutes
# [10] = Table 11, neutralize 250 μl 0.8 N HCl containing 100 mM succinate, hybridize 45 minutes at 60° C.
# [11] = Table 8, lysis 15 minutes, hybridization 45 minutes
# [12] = samples containing nucleic acids from the single VanA-positive bacterial isolate
# [13] = VanA-positive bacterial sample ATCC # 700221
# [14] = average over VanB-positive bacterial samples ATCC Nos. 51575, 700802 and 51299
# [15] = Table 10, neutralize 100 μl 2 N HCl containing 200 mM succinate, hybridize 45 minutes at 60° C.
Substance,"Probe Hybridization (in RLU) [2, 3]","Probe Hybridization (in RLU) [2, 4]","Probe Hybridization (in RLU) [2, 5]","Probe Hybridization (in RLU) [2, 6]",Probe Hybridization (in RLU) ([2]; Probe Alone (no added target)),Probe Hybridization (in RLU) ([2]; VanA clone (plasmid)),Probe Hybridization (in RLU) ([2]; VanB clone (plasmid)),"GP1217(Pos) RLU [1, 9]","Probe alone Avg RLU [1, 9]",further results
CCACTCAAGAGAGACAACATTTTCGACTAC (chemistry not given here) [S. aureus probe with helpers],,,,,,,,,,"RLU ([1]; Table 6, GP18(Neg), MSSA ATCC #12600): 148,780 RLU; RLU ([1]; Table 6, GP1214(Neg), MSSA ATCC #29247): 203,725 RLU; RLU ([1]; Table 6, GP1217(Pos), MRSA ATCC #33591): 199,476 RLU; RLU ([1]; Table 6, GP1218(Pos), MRSA ATCC #43866): 163,825 RLU"
"CCGCAGCTTGCATGGACAAATCACTGGC (DNA, backbone and methylation of C not given here; further chemistry not fully specified; listed as Enterococcus faecalis) [VanB(+)084]",7863 RLU,6003 RLU,768 RLU,10119 RLU,371 RLU,716 RLU,54711 RLU,,,"hybridization signal (in words) [2, 7]: very strong signals"
"CGATTGTGACACGATAGCCATCTTCATGTTGGAGC (DNA, backbone and methylation of C not given here; acridinium ester label on internal non-nucleotide linker; listed as Staphylococcus aureus) [probe 6]",,,,,,,,55947 RLU,1004 RLU,"GP18(Neg) RLU [1, 8]: 1195 RLU; GP1217(Pos) RLU [1, 8]: 38158 RLU; Probe alone Avg RLU [1, 8]: 6117 RLU; GP1214(Neg) RLU [1, 10]: 1994 RLU; GP1217(Pos) RLU [1, 10]: 43307 RLU; Probe alone Avg RLU [1, 10]: 1540 RLU"
"CGCATCCATCAGGAAAACGAGCCGG (DNA, backbone and methylation of C not given here; acridinium ester (AE) label attached via linker; listed as Enterococcus faecalis) [VanB(+)428]",8113 RLU,6307 RLU,683 RLU,9657 RLU,370 RLU,684 RLU,49242 RLU,,,"hybridization signal (in words) [2, 7]: very strong signals"
"CGGACGTTCAGTCATTTCTACTTCACCATTATCGC (DNA, backbone and methylation of C not given here; acridinium ester label on internal non-nucleotide linker; listed as Staphylococcus aureus) [probe 4]",,,,,,,,34352 RLU,734 RLU,"GP18(Neg) RLU [1, 11]: 641 RLU; GP1217(Pos) RLU [1, 11]: 20192 RLU; Probe alone Avg RLU [1, 11]: 690 RLU"
"CGTTCAGTACAATGCGGCCG (DNA, backbone and methylation of C not given here; further chemistry not fully specified; listed as Enterococcus faecium) [VanA(−)1325]",1182 RLU,1761 RLU,23523 RLU,931 RLU,368 RLU,24378 RLU,942 RLU,,,"hybridization signal (in words) [2, 12]: very strong hybridization signals"
"GAGCTTTGAATATCGCAGCCTAC (AE label linker 11/12, chemistry not fully specified; listed as Enterococcus faecalis) [Van A&B(−)734]",5497 RLU,5166 RLU,8901 RLU,7425 RLU,240 RLU,48999 RLU,718† RLU,,,"background-corrected hybridization signal relative to negative control (fold greater than background) [2, 13]: about 36 fold; background-corrected hybridization signal relative to negative control (fold greater than background) [2, 14]: about 24 fold; hybridization signal (in words) ([2]; nucleic acids from VRE bacteria either VanA-positive or VanB-positive): very strong signals"
"GCGATAATGGTGAAGTAGAAATGACTGAACGTCCG (DNA, backbone and methylation of C not given here; acridinium ester label on internal non-nucleotide linker; listed as Staphylococcus aureus) [probe 3]",,,,,,,,46566 RLU,684 RLU,"GP18(Neg) RLU [1, 11]: 371 RLU; GP1217(Pos) RLU [1, 11]: 36123 RLU; Probe alone Avg RLU [1, 11]: 445 RLU; GP1214(Neg) RLU [1, 10]: 1303 RLU; GP1217(Pos) RLU [1, 10]: 36993 RLU; Probe alone Avg RLU [1, 10]: 1098 RLU"
"GCTCCAACATGAAGATGGCTATCGTGTCACAATCG (DNA, backbone and methylation of C not given here; acridinium ester label on internal non-nucleotide linker; listed as Staphylococcus aureus) [probe 5]",,,,,,,,42816 RLU,2823 RLU,"GP18(Neg) RLU [1, 8]: 1250 RLU; GP1217(Pos) RLU [1, 8]: 37472 RLU; Probe alone Avg RLU [1, 8]: 4088 RLU"
"GCTGAGCTTTGAATATCGCAGCC (AE label linker 8/9, chemistry not fully specified; listed as Enterococcus faecium) [VanA(−)792]",2983 RLU,2254 RLU,10627 RLU,3653 RLU,256 RLU,52729 RLU,505 RLU,,,"background-corrected hybridization signal relative to negative control (fold greater than background) [2, 13]: about 40 fold; background-corrected hybridization signal relative to negative control (fold greater than background) [2, 14]: about 10.5 fold; hybridization signal (in words) [2, 12]: very strong hybridization signals"
"GGGTTGCTCAGAGGAGCATGACGTATCGG (DNA, backbone and methylation of C not given here; further chemistry not fully specified; listed as Enterococcus faecium) [VanA(+)464]",765 RLU,696 RLU,10910 RLU,757 RLU,374 RLU,37434 RLU,817 RLU,,,"hybridization signal (in words) [2, 12]: very strong hybridization signals"
"MeO-probe 1: 2′-methoxy analog of AE-labeled probe 1 (SEQ ID NO:1) (DNA GGTATGTGGAAGTTAGATTGGGATCATAGCG; all 2'-O-methyl, backbone and T or U not given here; acridinium ester label on internal non-nucleotide linker; listed as Staphylococcus aureus)",,,,,,,,,,"GP1214(Neg) RLU [1, 15]: 2308 RLU; GP1217(Pos) RLU [1, 15]: 62594 RLU; Probe alone Avg RLU [1, 15]: 1879 RLU; GP1214(Neg) RLU [1, 10]: 975 RLU; GP1217(Pos) RLU [1, 10]: 33659 RLU; Probe alone Avg RLU [1, 10]: 779 RLU"
